This note sets out measurements from ChEMBL document CHEMBL1147969, “Synthesis of some novel heterocyclic compounds derived from diflunisal hydrazide as potential anti-infective and anti-inflammatory agents” (2007).

The test system of the test is Vaccinia virus. Kind of test: Antiviral activity against Vaccinia virus-induced cytopathogenicity at 16 ug/mL. It counts as functional, organism-based. Conditions: Orthopoxvirus vaccinia.

Active and inactive are the calls of the source. No cut-off for these calls is given here.

Regarding `Cc1ccc(-n2c(-c3cc(-c4ccc(F)cc4F)ccc3O)n[nH]c2=S)cc1`, the outcome was Active.
